Experimental data published in patent US20210284668A1, “GOLD (I)-PHOSPHINE 1,2,3-TRIAZOLE DERIVATIVES WITH ANTIBIOTIC PROPERTIES” (Centre National de la Recherche Scientifique, priority 2018, published 2021).
Values joined by “and” are separate entries in the source; they are usually repeats but may differ in a detail not shown here. Equal entries are not always repeated.

How the values were obtained:
S. aureus ATCC29213 = experiment: MIC by microdilution, S. aureus ATCC29213; format: cell-based, Staphylococcus aureus; conditions: S. aureus ATCC29213 (MecA negative, wild-type), Mueller-Hinton broth, in duplicate
Method: The antibacterial profile of each derivative was evaluated by the standard microdilution method for susceptibility testing on 16 different strains, following the guidelines of CLSI. The selected panel included: • S. aureus ATCC25923 (MecA negative, wild-type) • S. aureus ATCC29213 (MecA negative, wild-type) • S. aureus ATCC700699 (MecA positive, glycopeptide resistant) • S. aureus ST20131365 (MecA positive, glycopeptide resistant) • S. epidermidis ATCC14990 (MecA negative, wild-type) • S. epidermidis ATCC35984 (MecA positive) • S. epidermidis ST20140436 (MecA positive, glycopeptide resistant) • S. epidermidis ST20150446 (MecA positive, glycopeptide resistant) • E. faecalis JH2-2 (wild-type) • E. faecalis UCN41 (VanA positive, glycopeptide resistant) • E. faecalis V583 (VanB positive, glycopeptide resistant) • E. faecium ATCC19434T (wild-type) • E. faecium BM4147 (VanA positive, glycopeptide resistant) • E. faecium AUS0004 (VanB positive, glycopeptide resistant) • E. coli ATCC25922 (wild-type) • Clostridium difficile ATCC9689 (wild-type)
Both series issued from the SAR study were evaluated for their antibacterial activity on a panel of characterized strains obtained from the French National Reference Centers for Staphylococci (Lyon, Pr. Fréderique Laurent) and for Enterococci (Caen, Pr. Vincent Cattoir), respectively. As shown in the following tables, both series contain very active compounds on multi-resistant Gram-positive bacteria (Minimal Inhibitory Concentrations lower than comparator antibiotic ampicillin). Furthermore, a very important antibacterial effect has been shown too on a strain of Clostridium difficile, a Gram-positive, spore-forming, bacillus responsible for post-antibiotic diarrhoae.
The antibacterial activity of test compounds was evaluated on a selected panel of Gram-positive (4 Staphylococcus aureus, 4 Staphylococcus epidermidis, 3 Enterococcus faecalis, 3 Enterococcus faecium, 1 Clostridium difficile) and Gram-negative strains (1 Escherichia coli, 1 Klebsiella pneumoniae, 1 Pseudomonas aeruginosa, 1 Acinetacter baumannii) with known features of antibiotic resistance (from wild-type susceptibility to multi-drug resistance). The Minimal Inhibitory Concentration (MIC) of test compounds was determined in duplicate by the microdilution method in 96-well microplates with a final volume of 100 μL per well and Mueller-Hinton broth as the growth medium, as recommended by the CLSI (Clinical and Laboratory Standards Institute, document Mo7-A10, USA).

S. aureus ATCC700699 = experiment: MIC by microdilution, S. aureus ATCC700699; format: cell-based, Staphylococcus aureus; set-up: unit not given here; conditions: S. aureus ATCC700699 (MecA positive, glycopeptide resistant), in duplicate
Procedure, shortened: (§1)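 Broth microdilution per CLSI document M07-A10, Mueller-Hinton medium, each MIC run in duplicate. Strains include E. coli ATCC25922 (wild-type), S. epidermidis ATCC35984 (MecA positive) and S. aureus ATCC700699 (MecA positive, glycopeptide resistant), within a mixed panel of susceptible and resistant Gram-positive/Gram-negative bacteria.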

S. aureus ST20131365 = experiment: MIC by microdilution, S. aureus ST20131365; format: cell-based, Staphylococcus aureus; conditions: S. aureus ST20131365 (MecA positive, glycopeptide resistant), in duplicate
Procedure, shortened: as §1

S. epidermidis ATCC14990 = experiment: MIC by microdilution, S. epidermidis ATCC14990; format: cell-based, Staphylococcus epidermidis; conditions: S. epidermidis ATCC14990 (MecA negative, wild-type), in duplicate
Procedure, shortened: as §1

S. epidermidis ATCC35984 = experiment: MIC by microdilution, S. epidermidis ATCC35984; format: cell-based, Staphylococcus epidermidis; conditions: S. epidermidis ATCC35984 (MecA positive), in duplicate
Procedure, shortened: as §1

[1] = test system: S. epidermidis ST20140436; experiment: MIC by microdilution, S. epidermidis ST20140436; format: cell-based, Staphylococcus epidermidis; conditions: S. epidermidis ST20140436 (MecA positive, glycopeptide resistant), in duplicate
Procedure, shortened: as §1

[2] = test system: S. epidermidis ST20150446; experiment: MIC by microdilution, S. epidermidis ST20150446; format: cell-based, Staphylococcus epidermidis; conditions: S. epidermidis ST20150446 (MecA positive, glycopeptide resistant), in duplicate
Procedure, shortened: as §1

E. faecalis JH2-2 = experiment: MIC by microdilution, E. faecalis JH2-2; format: cell-based, Enterococcus faecalis; set-up: unit not given here; conditions: E. faecalis JH2-2 (wild-type), in duplicate
Procedure, shortened: as §1

E. faecalis UCN41 = experiment: MIC by microdilution, E. faecalis UCN41; format: cell-based, Enterococcus faecalis; set-up: unit not given here; conditions: E. faecalis UCN41 (VanA positive, glycopeptide resistant), in duplicate
Procedure, shortened: as §1

E. faecalis V583 = experiment: MIC by microdilution, E. faecalis V583; format: cell-based, Enterococcus faecalis; conditions: E. faecalis V583 (VanB positive, glycopeptide resistant), in duplicate
Procedure, shortened: as §1

E. faecium ATCC19434T = experiment: MIC by microdilution, E. faecium ATCC19434T; format: cell-based, Enterococcus faecium; set-up: unit not given here; conditions: E. faecium ATCC19434T (wild-type), in duplicate
Procedure, shortened: as §1

E. faecium BM4147 = experiment: MIC by microdilution, E. faecium BM4147; format: cell-based, Enterococcus faecium; set-up: unit not given here; conditions: E. faecium BM4147 (VanA positive, glycopeptide resistant), in duplicate
Procedure, shortened: as §1

E. faecium AUS0004 = experiment: MIC by microdilution, E. faecium AUS0004; format: cell-based, Enterococcus faecium; conditions: E. faecium AUS0004 (VanB positive, glycopeptide resistant), in duplicate
Procedure, shortened: as §1

E. coli ATCC25922 = experiment: MIC by microdilution, E. coli ATCC25922; format: cell-based, Escherichia coli; conditions: E. coli ATCC25922 (wild-type), in duplicate
Procedure, shortened: as §1

[3] = test system: Clostridium difficile ATCC700057; experiment: MIC by microdilution, Clostridium difficile; format: cell-based; conditions: strain ATCC70057 [sic] (Tables 1-2) / ATCC700057 (Tables 3-10), in duplicate
[4] = test system: panel of Gram-positive and Gram-negative strains; experiment: Antibacterial profile on the selected panel of strains; format: cell-based; conditions: summary of Tables 1-12
Procedure, shortened: as §1

S. aureus ATCC25923 = experiment: MIC by microdilution, S. aureus ATCC25923; format: cell-based, Staphylococcus aureus; conditions: S. aureus ATCC25923 (MecA negative, wild-type), Mueller-Hinton broth, in duplicate
Procedure, shortened: as §1

| Structure (SMILES) | Minimal Inhibitory Concentration (MIC) (S. aureus ATCC29213) | Minimal Inhibitory Concentration (MIC) (S. aureus ATCC700699) | Minimal Inhibitory Concentration (MIC) (S. aureus ST20131365) | Minimal Inhibitory Concentration (MIC) (S. epidermidis ATCC14990) | Minimal Inhibitory Concentration (MIC) (S. epidermidis ATCC35984) | Minimal Inhibitory Concentration (MIC) [1] | Minimal Inhibitory Concentration (MIC) [2] | Minimal Inhibitory Concentration (MIC) (E. faecalis JH2-2) | Minimal Inhibitory Concentration (MIC) (E. faecalis UCN41) | Minimal Inhibitory Concentration (MIC) (E. faecalis V583) | Minimal Inhibitory Concentration (MIC) (E. faecium ATCC19434T) | Minimal Inhibitory Concentration (MIC) (E. faecium BM4147) | Minimal Inhibitory Concentration (MIC) (E. faecium AUS0004) | Minimal Inhibitory Concentration (MIC) (E. coli ATCC25922) | Minimal Inhibitory Concentration (MIC) [3] | antimicrobial / antibacterial activity (in words) [4] | Minimal Inhibitory Concentration (MIC) (S. aureus ATCC25923) |
| --- | --- | --- | --- | --- | --- | --- | --- | --- | --- | --- | --- | --- | --- | --- | --- | --- | --- |
| CC[P+](CC)(CC)[Au-][c]1nn[nH]c1CCC(=O)O [TMB19] | 0.125 | 0.125 and 0.25 | 0.125 | ≤0.06 | ≤0.06 | ≤0.06 | ≤0.06 | 0.125 and 0.25 | 0.125 and 0.25 | 0.125 and 0.25 | 0.125 and 0.25 | 0.25 | 0.125 | >8 | ≤0.06 | have antimicrobial activity |  |
| CC[P+](CC)(CC)[Au-][c]1nn[nH]c1COC(=O)NCC(=O)O [TMB18] | 0.125 | 0.125 | 0.125 | ≤0.06 | ≤0.06 | ≤0.06 | ≤0.06 | 0.25 | 0.25 and 0.5 | 0.25 and 0.5 | 0.25 | 0.5 | 0.25 | >8 | ≤0.06 | have antimicrobial activity | 0.125 |
| CC1(C)S[C@@H]2[C@H](NC(=O)[C@H](NC(=O)OCc3cnn[nH]3)c3ccccc3)C(=O)N2[C@H]1C(=O)O [TMB5] | 2 | >8 | >8 | 1 | >8 | 8/>8 | >8 | 2 and 4 | 8 | 4 | 8 | >8 | >8 | >8 | 4 | do not show an antibacterial activity | 2 |
| CC[P+](CC)(CC)[Au-][c]1nn[nH]c1CN1CCN(C)CC1 [TMB33] | 0.25 | 0.25 | 0.25 | ≤0.06 | ≤0.06 | 0.25 | 0.25 | 0.25 | 1 | 0.5 | 0.25 | 0.5 | 0.5 | >8 | ≤0.06 | have antimicrobial activity | 0.125 |
| CC1(C)S[C@@H]2[C@H](NC(=O)[C@H](N)c3ccccc3)C(=O)N2[C@H]1C(=O)O [Ampi, ampicillin, reference compound] | 0.5 |  | 4 |  | >8 | 4 and 8 | 8 and 4 |  |  | 0.5 | 0.5 | 4 and 8 | >8 | 2 | 0.5 and 0.5-1 and 0.25 |  |  |
| CC[P+](CC)(CC)[Au-][c]1nn[nH]c1COC(=O)N[C@@H](CCCNC(=N)N[N+](=O)[O-])C(=O)O [TMB35] | 0.25 | 0.25 | 0.25 | ≤0.06 |  | 0.125 | 0.125 and 0.25 | 1 | 1 | 1 | 0.5 | 1 | 1 | >8 | 0.125 | have antimicrobial activity | 0.125 |
| CC[P+](CC)(CC)[Au-][c]1nn[nH]c1CCC(=O)NC(C(=O)NC1C(=O)N2C1SC(C)(C)C2C(=O)O)c1ccccc1 (centres unmarked) [TMB4] | 0.125 | 0.125 | 0.125 | ≤0.06 | ≤0.06 | ≤0.06 | 0.125 |  | 0.5 | 0.5 | 0.5 | 1 | 0.5 | >8 | ≤0.06-0.125 | have antimicrobial activity | 0.125 |
